# Source: patent US6737383B1, “Herbicidal oxadiazolidines” (priority 1999, dated 2004)
# How the values were obtained:
# wheat = test: Test B pre/postemergence wheat; type: in vivo, Triticum aestivum
# How it was run: (§1)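 Response is a visual 0-to-10 score relative to untreated plants, where 0 means no effect and 10 means complete control, taken twelve to sixteen days after application. Treatments went onto soil at planting and onto foliage of 1- to 4-leaf plants, using a surfactant-containing non-phytotoxic solvent.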
# cocklebur = test: Test B pre/postemergence cocklebur; type: in vivo, Xanthium strumarium
# How it was run: as §1
# blackgrass = test: Test B pre/postemergence blackgrass; type: in vivo, Alopecurus myosuroides
# How it was run: as §1
# morningglory = test: Test B pre/postemergence morningglory; type: in vivo, Ipomoea hederacea
# How it was run: as §1
# bedstraw = test: Test B pre/postemergence bedstraw; type: in vivo, Galium aparine; details: Preemergence
# How it was run: as §1
# crabgrass = test: Test B pre/postemergence crabgrass; type: in vivo, Digitaria sanguinalis
# How it was run: as §1
# sugar beet = test: Test B pre/postemergence sugar beet; type: in vivo, Beta vulgaris
# How it was run: as §1
# corn = test: Test B pre/postemergence corn; type: in vivo, Zea mays
# How it was run: as §1
# surinam grass = test: Test B pre/postemergence surinam grass; type: in vivo, Brachiaria decumbens
# How it was run: as §1
# velvetleaf = test: Test B pre/postemergence velvetleaf; type: in vivo, Abutilon theophrasti
# How it was run: as §1
# wild oat = test: Test B pre/postemergence wild oat; type: in vivo, Avena fatua
# How it was run: as §1
# purple nutsedge = test: Test B pre/postemergence purple nutsedge; type: in vivo, Cyperus rotundus
# How it was run: as §1
# giant foxtail = test: Test B pre/postemergence giant foxtail; type: in vivo, Setaria faberii
# How it was run: as §1
# pigweed = test: Test B pre/postemergence pigweed; type: in vivo, Amaranthus retroflexus
# How it was run: as §1
# rape = test: Test B pre/postemergence rape; type: in vivo, Brassica napus
# How it was run: as §1
# soybean = test: Test B pre/postemergence soybean; type: in vivo, Glycine max
# How it was run: as §1
# [1] = Postemergence, Rate 62 g/ha, scale 0 to 10, 0 is no effect, 10 is complete control
# [2] = Postemergence, Rate 125 g/ha, scale of 0 to 10 where 0 is no effect and 10 is complete control
# [3] = Preemergence, Rate 62 g/ha, scale of 0 to 10 where 0 is no effect and 10 is complete control
# [4] = Preemergence, Rate 125 g/ha, scale of 0 to 10 where 0 is no effect and 10 is complete control
# [5] = Preemergence, Rate 250 g/ha, scale 0 to 10 (0 no effect, 10 complete control)
# [6] = Preemergence, Rate 500 g/ha, scale of 0 to 10 where 0 is no effect and 10 is complete control
# [7] = Rate 500 g/ha, Postemergence, scale 0 to 10, 0 is no effect, 10 is complete control
# [8] = Postemergence, Rate 250 g/ha, scale of 0 to 10, 0 is no effect, 10 is complete control
compound,measurement,setting,value
CC(C)N(C(=O)n1oc(=O)n(Cc2nnc(Cl)s2)c1=O)c1ccc(Cl)cc1 [Compound 653],"Plant response rating, Wheat",wheat; [1],0
same,Wheat plant response rating,wheat; [2],0
same,Wheat plant response rating,wheat; [3],0
same,Wheat plant response rating,wheat; [4],0
same,"Plant response rating, Wheat",wheat; [5],0
same,"Plant response rating, Wheat",wheat; [6],0
same,Wheat plant response rating,wheat; [7],0
same,"Plant response rating, Cocklebur",cocklebur; [1],0
same,Cocklebur plant response rating,cocklebur; [2],0
same,Cocklebur plant response rating,cocklebur; [8],0
same,Cocklebur plant response rating,cocklebur; [3],0
same,"Plant response rating, Cocklebur",cocklebur; [5],0
same,"Plant response rating, Cocklebur",cocklebur; [6],0
same,Cocklebur plant response rating,cocklebur; [7],0
same,"Plant response rating, Blackgrass",blackgrass; [1],0
same,Blackgrass plant response rating,blackgrass; [2],0
same,Blackgrass plant response rating,blackgrass; [8],0
same,Blackgrass plant response rating,blackgrass; [3],0
same,Blackgrass plant response rating,blackgrass; [4],0
same,"Plant response rating, Blackgrass",blackgrass; [5],0
same,"Plant response rating, Blackgrass",blackgrass; [6],0
same,Blackgrass plant response rating,blackgrass; [7],0
same,"Plant response rating, Morningglory",morningglory; [1],0
same,Morningglory plant response rating,morningglory; [2],1
same,Morningglory plant response rating,morningglory; [8],1
same,Morningglory plant response rating,morningglory; [3],0
same,Morningglory plant response rating,morningglory; [4],0
same,"Plant response rating, Morningglory",morningglory; [5],0
same,"Plant response rating, Morningglory",morningglory; [6],0
same,Morningglory plant response rating,morningglory; [7],1
same,Bedstraw plant response rating,"bedstraw; Rate 62 g/ha, scale of 0 to 10 where 0 is no effect and 10 is complete control",0
same,Bedstraw plant response rating,"bedstraw; Rate 125 g/ha, scale of 0 to 10 where 0 is no effect and 10 is complete control",0
same,"Plant response rating, Bedstraw","bedstraw; Rate 250 g/ha, scale 0 to 10 (0 no effect, 10 complete control)",0
same,"Plant response rating, Bedstraw","bedstraw; Rate 500 g/ha, scale of 0 to 10 where 0 is no effect and 10 is complete control",0
same,"Plant response rating, Crabgrass",crabgrass; [1],0
same,Crabgrass plant response rating,crabgrass; [2],0
same,Crabgrass plant response rating,crabgrass; [8],0
same,Crabgrass plant response rating,crabgrass; [3],0
same,Crabgrass plant response rating,crabgrass; [4],2
same,"Plant response rating, Crabgrass",crabgrass; [5],6
same,"Plant response rating, Crabgrass",crabgrass; [6],8
same,Crabgrass plant response rating,crabgrass; [7],2
same,"Plant response rating, Sugarbeets",sugar beet; [1],0
same,Sugarbeets plant response rating,sugar beet; [2],0
same,Sugarbeets plant response rating,sugar beet; [3],0
same,Sugarbeets plant response rating,sugar beet; [4],0
same,"Plant response rating, Sugarbeets",sugar beet; [5],0
same,"Plant response rating, Sugarbeets",sugar beet; [6],0
same,Sugarbeets plant response rating,sugar beet; [7],0
same,"Plant response rating, Corn",corn; [1],0
same,Corn plant response rating,corn; [2],0
same,Corn plant response rating,corn; [8],0
same,Corn plant response rating,corn; [3],0
same,Corn plant response rating,corn; [4],0
same,"Plant response rating, Corn",corn; [5],0
same,"Plant response rating, Corn",corn; [6],0
same,Corn plant response rating,corn; [7],0
same,"Plant response rating, B. signalgrass",surinam grass; [1],0
same,"Plant response rating, B. signalgrass",surinam grass; [2],0
same,B. signalgrass plant response rating,surinam grass; [8],0
same,B. signalgrass plant response rating,surinam grass; [3],0
same,B. signalgrass plant response rating,surinam grass; [4],0
same,"Plant response rating, B. signalgrass",surinam grass; [5],0
same,"Plant response rating, B. signalgrass",surinam grass; [6],0
same,B. signalgrass plant response rating,surinam grass; [7],2
same,"Plant response rating, Velvetleaf",velvetleaf; [1],0
same,Velvetleaf plant response rating,velvetleaf; [2],0
same,Velvetleaf plant response rating,velvetleaf; [3],0
same,Velvetleaf plant response rating,velvetleaf; [4],0
same,"Plant response rating, Velvetleaf",velvetleaf; [5],0
same,"Plant response rating, Velvetleaf",velvetleaf; [6],0
same,Velvetleaf plant response rating,velvetleaf; [7],0
same,"Plant response rating, Wild oats",wild oat; [1],0
same,Wild oats plant response rating,wild oat; [2],0
same,Wild oats plant response rating,wild oat; [3],0
same,Wild oats plant response rating,wild oat; [4],0
same,"Plant response rating, Wild oats",wild oat; [5],0
same,"Plant response rating, Wild oats",wild oat; [6],2
same,Wild oats plant response rating,wild oat; [7],0
same,"Plant response rating, Nutsedge",purple nutsedge; [1],0
same,Nutsedge plant response rating,purple nutsedge; [2],0
same,Nutsedge plant response rating,purple nutsedge; [3],0
same,"Plant response rating, Nutsedge",purple nutsedge; [6],0
same,Nutsedge plant response rating,purple nutsedge; [7],0
same,"Plant response rating, Giant foxtail",giant foxtail; [1],0
same,Giant foxtail plant response rating,giant foxtail; [2],0
same,Giant foxtail plant response rating,giant foxtail; [8],2
same,Giant foxtail plant response rating,giant foxtail; [3],0
same,Giant foxtail plant response rating,giant foxtail; [4],0
same,"Plant response rating, Giant foxtail",giant foxtail; [5],2
same,"Plant response rating, Giant foxtail",giant foxtail; [6],8
same,Giant foxtail plant response rating,giant foxtail; [7],7
same,"Plant response rating, Redroot pigweed",pigweed; [1],0
same,Redroot pigweed plant response rating,pigweed; [2],0
same,Redroot pigweed plant response rating,pigweed; [3],0
same,Redroot pigweed plant response rating,pigweed; [4],0
same,"Plant response rating, Redroot pigweed",pigweed; [5],0
same,"Plant response rating, Redroot pigweed",pigweed; [6],3
same,Redroot pigweed plant response rating,pigweed; [7],0
same,"Plant response rating, Rape",rape; [1],0
same,Rape plant response rating,rape; [2],0
same,Rape plant response rating,rape; [3],0
same,Rape plant response rating,rape; [4],0
same,"Plant response rating, Rape",rape; [5],0
same,"Plant response rating, Rape",rape; [6],0
same,Rape plant response rating,rape; [7],0
same,"Plant response rating, Soybean",soybean; [1],0
same,Soybean plant response rating,soybean; [2],0
same,Soybean plant response rating,soybean; [3],0
same,Soybean plant response rating,soybean; [4],0
same,"Plant response rating, Soybean",soybean; [5],0
same,"Plant response rating, Soybean",soybean; [6],0
same,Soybean plant response rating,soybean; [7],0
